Results: US7482008B1, “Human T cell reactive feline protein (TRFP) isolated from house dust and uses therefor” (Merck Patent GmbH, priority 1989, dated 2009)
Where “and” joins values, the source holds several entries; their conditions need not be identical. Identical values can stand only once.

Experiments:
[1] = tested on: BDF1 mice; assay: Tolerization of mice with peptide s.c. or i.v., peptide-specific IL-2 production of lymph node cells (CTLL-2); type: in vivo, mouse; conditions: 300 μg in PBS day 0 and 5, intravenously and subcutaneously; challenge 100 μg in CFA
Procedure: Four groups of five BDF1 (C57BL/6J×DBA/2J) mice (females, 6-8 weeks of age), were injected either subcutaneously in a single dorsal site between the forelimbs or intravenously through one of the tail veins. […] The animals were sacrificed by cervical dislocation on day 20 and inguinal and popliteal nodes were removed and placed in rinsing buffer, cold RPMI 1640 containing 1% Fetal Bovine Serum (FBS). The nodes were rinsed with rinsing buffer and forced through a fine stainless steel mesh, using a glass pestal to suspend them in rinsing buffer. The suspended cells were rinsed two times by centrifugation at 1500 rpm for 10 minutes and resuspended with rinsing buffer. An aliquot of suspended cells from each animal was counted on a Coulter Counter Model ZB.
The 0.2 ml cultures were done in triplicate in flat bottom 96 well plates (Costar) at 37° C. and 5% CO2. After 24 hours, […] of the media from each well was placed in separate round bottom 96 well plates (Costar) and was frozen overnight at −20° C. to eliminate carryover of live cells. The supernatants were tested after thawing for their ability to support the growth of CTLL-2, an IL-2 dependent T cell clone (ATCC TIB#214). […] The ^3H-incorporation in each well was counted by a Betaplate Model 1205 scintillation counter. […]

[2] = tested on: CD4+ T cells; assay: Cytokine production of purified CD4+ T cells from peptide Y pre-injected mice; type: in vivo, mouse; conditions: CD4+ T cells from pre-injected mice compared to control CD4+ cells
[3] = tested on: BDF1 mice preimmunized with TRFP; assay: ELISA of specific IgG binding of mouse sera to TRFP before and after tolerization; type: in vivo
Procedure: BDF1 mice were each immunized with 100 μg TRFP in 200 μl IFA (Incomplete Freund's Adjuvant) in a single site intraperitoneally. After four months, the mice were bled and grouped according to their anti-TRFP IgG antibody levels as follows. The mice were warmed with an infra-red lamp and bled through one of the tail veins by nicking the vein with a razor blade (Gilette Platinum Plus). The blood was allowed to drip into a serum separating tube (Microtainer, Becton-Dickenson) and allowed to clot. The sera was then separated from the clot by centrifugation at 13,000 rpm. The sera was stored at −20° C. until use. The sera was assayed for TRFP-specific IgG by ELISA. For the IgG assay, immunoaffinity purified TRFP was coated onto Nunc Polysorp 96-well plates by incubation of 50 μl/well of 2 μg/ml TRFP in PBS. Unless mentioned, each incubation step in this protocol was performed for 1 hour at 37° C. After rinsing with PBS, the wells were incubated with 0.5% gelatin in PBS to block excess binding to the plate. The plates were rinsed with PBS containing 0.05% Tween 20. […] After rinsing, the bound mouse antibody was detected by incubation with biotinylated goat anti-mouse IgG (Southern Biotechnology Associates) diluted 1/10000 in PBS. The plates were rinsed and streptavidin conjugated to horse radish peroxidase (Southern Bio. Ass.) diluted 1/10000 was added for 20 minutes and incubated at room temperature. TMB peroxidase substrate (Kirkegaard and Perry) was used according to directions supplied. The resulting O.D. values were read by an ELISA reader (Bio-Tek modal #310) at 450 nm to quantitate the complexes bound to TRFP protein on the plates. The mice were matched for O.D. of the developed ELISA wells using the 1/500 dilution of each sera and separated into two matched groups of three animals. The range of the values for the TRFP specific IgG of 1/500 dilution sera from these animals was between 1.7 and 2.2. […]

[4] = specific IgG binding to TRFP, 1/4500 dilution of sera, individual mice #1-#3

Substance: peptide Y: amino acid residues 29-55 from chain 1 of TRFP (SEQ. ID. NO: 18) (KALPVVLENARILKNCVDAKMTEEDKE)
- specific IL-2 secretion of draining lymph node cells [1]: decreased specific IL-2 secretion
- reduction in the production of the cytokines (IL-2, IL-3 and IL-4) [2]: greater than 75%
- quantity of antibody specific for TRFP ([3]; 20 days following tolerization): no significant change
- ELISA O.D.-sera sampled after “tolerization and challenge [3, 4]: 0.492 and 0.654 and 0.585
- ELISA O.D.-sera sampled before “tolerization” and challenge [3, 4]: 0.670 and 0.687 and 0.686
